Experimental data as given in the supplement of paper PMC10307832.

How the values were obtained:
Assay in all cases: relative viability (nuclei count vs DMSO), 5 days (fraction); higher = more cells survive
NCI-H1734 = test system: NCI-H1734
Outline: (§1)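 Relative viability is defined as nuclei in treated wells over nuclei in vehicle wells. Duplicate plates were run and medians reported. Lung cancer cell lines in 1536-well plates were dosed by pin tool one day after seeding, with one drug or with a fixed anchor-drug dose plus five library-drug doses (not always all listed) in √10 steps, and nuclei were counted after 5 days.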

LCLC-97TM1 = test system: LCLC-97TM1
Outline: as §1

NCI-H2085 = test system: NCI-H2085
Outline: as §1

SW 1573 = test system: SW 1573
Outline: as §1

NCI-H647 = test system: NCI-H647
Outline: as §1

EMC-BAC-2 = test system: EMC-BAC-2
Outline: as §1

NCI-H2023 = test system: NCI-H2023
Outline: as §1

NCI-H661 = test system: NCI-H661
Outline: as §1

NCI-H322M = test system: NCI-H322M
Outline: as §1

EPLC-272H = test system: EPLC-272H
Outline: as §1

NCI-H1993 = test system: NCI-H1993
Outline: as §1

LXF-289 = test system: LXF-289
Outline: as §1

SK-LU-1 = test system: SK-LU-1
Outline: as §1

H3255 = test system: H3255
Outline: as §1

NCI-H1915 = test system: NCI-H1915
Outline: as §1

HOP-62 = test system: HOP-62
Outline: as §1

PC-14 = test system: PC-14
Outline: as §1

NCI-H2126 = test system: NCI-H2126
Outline: as §1

NCI-H2009 = test system: NCI-H2009
Outline: as §1

NCI-H727 = test system: NCI-H727
Outline: as §1

NCI-H1563 = test system: NCI-H1563
Outline: as §1

NCI-H2347 = test system: NCI-H2347
Outline: as §1

Work on `O=c1cc(-c2cccc3c2Sc2ccccc2S3)oc(N2CCOCC2)c1` + Cc1nc(NC(=O)N2CCC[C@H]2C(N)=O)sc1-c1ccnc(C(C)(C)C(F)(F)F)c1 [Alpelisib] (partner 2 µM) yielded a relative viability (NCI-H1734; first compound 0.08 µM) of 0.595, a relative viability (NCI-H1734; first compound 0.253 µM) of 0.841 and a relative viability (NCI-H1734; first compound 0.8 µM) of 0.729. It also gave a relative viability (NCI-H1734; first compound 2.53 µM) of 0.662, a relative viability (NCI-H1734; first compound 8 µM) of 0.706 and a relative viability (LCLC-97TM1; first compound 0.08 µM) of 0.238. It also gave a relative viability (LCLC-97TM1; first compound 0.253 µM) of 0.27, a relative viability (LCLC-97TM1; first compound 0.8 µM) of 0.323 and a relative viability (LCLC-97TM1; first compound 2.53 µM) of 0.205. For the same compound, the relative viability (LCLC-97TM1; first compound 8 µM) was 0.218, the relative viability (NCI-H2085; first compound 0.08 µM) was 0.907 and the relative viability (NCI-H2085; first compound 0.253 µM) was 0.93. It also gave a relative viability (NCI-H2085; first compound 0.8 µM) of 1.05, a relative viability (NCI-H2085; first compound 2.53 µM) of 0.779 and a relative viability (NCI-H2085; first compound 8 µM) of 0.72. For the same compound, the relative viability (SW 1573; first compound 0.08 µM) was 0.719, the relative viability (SW 1573; first compound 0.253 µM) was 0.785 and the relative viability (SW 1573; first compound 0.8 µM) was 0.667. It also gave a relative viability (SW 1573; first compound 2.53 µM) of 0.803, a relative viability (SW 1573; first compound 8 µM) of 0.657 and a relative viability (NCI-H647; first compound 0.08 µM) of 1.4. For the same compound, the relative viability (NCI-H647; first compound 0.253 µM) was 1.47, the relative viability (NCI-H647; first compound 0.8 µM) was 1.31 and the relative viability (NCI-H647; first compound 2.53 µM) was 0.869. It also gave a relative viability (NCI-H647; first compound 8 µM) of 0.977, a relative viability (EMC-BAC-2; first compound 0.08 µM) of 0.755 and a relative viability (EMC-BAC-2; first compound 0.253 µM) of 0.799. For the same compound, the relative viability (EMC-BAC-2; first compound 0.8 µM) was 0.815, the relative viability (EMC-BAC-2; first compound 2.53 µM) was 0.71 and the relative viability (EMC-BAC-2; first compound 8 µM) was 0.856. The relative viability (NCI-H2023; first compound 0.08 µM) was 0.593, the relative viability (NCI-H2023; first compound 0.253 µM) was 0.82 and the relative viability (NCI-H2023; first compound 0.8 µM) was 0.59. For the same compound, the relative viability (NCI-H2023; first compound 2.53 µM) was 0.57, the relative viability (NCI-H2023; first compound 8 µM) was 0.49 and the relative viability (NCI-H661; first compound 0.08 µM) was 0.541. The relative viability (NCI-H661; first compound 0.253 µM) was 0.753, the relative viability (NCI-H661; first compound 0.8 µM) was 0.594 and the relative viability (NCI-H661; first compound 2.53 µM) was 0.512. For the same compound, the relative viability (NCI-H661; first compound 8 µM) was 0.98, the relative viability (NCI-H322M; first compound 0.08 µM) was 0.784 and the relative viability (NCI-H322M; first compound 0.253 µM) was 0.79. For the same compound, the relative viability (NCI-H322M; first compound 0.8 µM) was 0.79, the relative viability (NCI-H322M; first compound 2.53 µM) was 0.964 and the relative viability (NCI-H322M; first compound 8 µM) was 0.838. For the same compound, the relative viability (EPLC-272H; first compound 0.08 µM) was 0.966, the relative viability (EPLC-272H; first compound 0.253 µM) was 1.11 and the relative viability (EPLC-272H; first compound 0.8 µM) was 0.987. It also gave a relative viability (EPLC-272H; first compound 2.53 µM) of 0.86, a relative viability (EPLC-272H; first compound 8 µM) of 0.929 and a relative viability (NCI-H1993; first compound 0.08 µM) of 0.735. It also gave a relative viability (NCI-H1993; first compound 0.253 µM) of 0.687, a relative viability (NCI-H1993; first compound 0.8 µM) of 0.69 and a relative viability (NCI-H1993; first compound 2.53 µM) of 0.68. The relative viability (NCI-H1993; first compound 8 µM) was 0.718, the relative viability (LXF-289; first compound 0.08 µM) was 1.1 and the relative viability (LXF-289; first compound 0.253 µM) was 1.07. It also gave a relative viability (LXF-289; first compound 0.8 µM) of 1.14, a relative viability (LXF-289; first compound 2.53 µM) of 1.01 and a relative viability (LXF-289; first compound 8 µM) of 1.07. For the same compound, the relative viability (SK-LU-1; first compound 0.08 µM) was 1.03, the relative viability (SK-LU-1; first compound 0.253 µM) was 1.12 and the relative viability (SK-LU-1; first compound 0.8 µM) was 1.26. For the same compound, the relative viability (SK-LU-1; first compound 2.53 µM) was 0.991, the relative viability (SK-LU-1; first compound 8 µM) was 0.977 and the relative viability (H3255; first compound 0.08 µM) was 0.631. The relative viability (H3255; first compound 0.253 µM) was 0.755, the relative viability (H3255; first compound 0.8 µM) was 0.637 and the relative viability (H3255; first compound 2.53 µM) was 0.653. For the same compound, the relative viability (H3255; first compound 8 µM) was 0.797, the relative viability (NCI-H1915; first compound 0.08 µM) was 1.15 and the relative viability (NCI-H1915; first compound 0.253 µM) was 1.12. It also gave a relative viability (NCI-H1915; first compound 0.8 µM) of 1.07, a relative viability (NCI-H1915; first compound 2.53 µM) of 0.994 and a relative viability (NCI-H1915; first compound 8 µM) of 1.11. The relative viability (HOP-62; first compound 0.08 µM) was 0.962, the relative viability (HOP-62; first compound 0.253 µM) was 0.85 and the relative viability (HOP-62; first compound 0.8 µM) was 1.01. It also gave a relative viability (HOP-62; first compound 2.53 µM) of 0.908, a relative viability (HOP-62; first compound 8 µM) of 1.18 and a relative viability (PC-14; first compound 0.08 µM) of 0.936. For the same compound, the relative viability (PC-14; first compound 0.253 µM) was 1.17, the relative viability (PC-14; first compound 0.8 µM) was 1.11 and the relative viability (PC-14; first compound 2.53 µM) was 0.821. It also gave a relative viability (PC-14; first compound 8 µM) of 1.05, a relative viability (NCI-H2126; first compound 0.08 µM) of 0.827 and a relative viability (NCI-H2126; first compound 0.253 µM) of 0.822. For the same compound, the relative viability (NCI-H2126; first compound 0.8 µM) was 0.734, the relative viability (NCI-H2126; first compound 2.53 µM) was 0.739 and the relative viability (NCI-H2126; first compound 8 µM) was 0.735. For the same compound, the relative viability (NCI-H2009; first compound 0.08 µM) was 1.18, the relative viability (NCI-H2009; first compound 0.253 µM) was 1.27 and the relative viability (NCI-H2009; first compound 0.8 µM) was 1.18. For the same compound, the relative viability (NCI-H2009; first compound 2.53 µM) was 1.14, the relative viability (NCI-H2009; first compound 8 µM) was 0.811 and the relative viability (NCI-H727; first compound 0.253 µM) was 0.553. For the same compound, the relative viability (NCI-H727; first compound 2.53 µM) was 0.47, the relative viability (NCI-H727; first compound 8 µM) was 0.761 and the relative viability (NCI-H1563; first compound 0.08 µM) was 0.917. The relative viability (NCI-H1563; first compound 0.253 µM) was 1.04, the relative viability (NCI-H1563; first compound 0.8 µM) was 0.853 and the relative viability (NCI-H1563; first compound 2.53 µM) was 0.848. It also gave a relative viability (NCI-H1563; first compound 8 µM) of 0.822, a relative viability (NCI-H2347; first compound 0.08 µM) of 1.03 and a relative viability (NCI-H2347; first compound 0.253 µM) of 1.14. It also gave a relative viability (NCI-H2347; first compound 0.8 µM) of 1.1, a relative viability (NCI-H2347; first compound 2.53 µM) of 1.11 and a relative viability (NCI-H2347; first compound 8 µM) of 1.16.
